The values that follow come from patent US11014888B2, “Crystalline form of alkynyl pyridine prolyl hydroxylase inhibitor and method for preparing same” (JIANGSU HENGRUI MEDICINE CO., LTD., priority 2017, dated 2021).

SMILES strings stand for the structures.

Series [1] can be described thus: Physical stability test (XRPD) of crystal forms under different placement conditions. In kind it is physicochemical. The settings on record: for Physical stability (XRPD): 1 week; for Physical stability, conclusion from Table 7: C, D, H changed after one week, A, B, I did not change after one month. How it is done: Physical stability test was carried out on the samples of crystal forms A, B, C, D, H and I under different placement conditions. The placement conditions were:
1. 40° C., humidity 75%, open/sealed;
2. 25° C., humidity 60%, open; and […]

Series [2] can be described thus: XRPD after standing at 0% humidity for 10 days. In kind it is physicochemical. The source says: The samples of crystal forms A and B were left to stand under the condition of 0% humidity for 10 days, and subjected to XRPD to investigate the stability of the crystal form under the low humidity condition.
Series [3] in a line: XRPD comparison of crystal forms before and after DSC heating. In kind it is physicochemical. As to the method: XRPD test was carried out on the samples of crystal forms A, B and I after the DSC test.
Series [4] can be described thus: Chemical stability under different humidity conditions, impurity content by HPLC. In kind it is physicochemical. The note with it: for Total impurity content (%): HPLC; for Impurity content level / Change of impurity content under various conditions: conclusion from Table 8; for Change of impurity content under various conditions: humidity 0%, 75%, 92.5% (25° C.), up to 30 days. As to the method: The samples of crystal forms A, B and I were left to stand under different humidity conditions to test their chemical stability. The impurity content was determined by HPLC (HPLC detection conditions: ZORBAX SB-C18 4.6*150 mm 3.5 μm, mobile phase: TFA/methanol/water, detection wavelength: 223 nm).

The nature of series [5]: XRPD comparison of crystal forms before and after the DVS test. The note with it: for Crystal form change before and after the DVS test (XRPD): 25° C., water, 50%-95%-0%-95%-50% RH; for Stability / sensitivity to humidity: conclusion from XRPD before and after DVS test. In kind it is physicochemical. How it is done: XRPD test was carried out on the samples of crystal forms A, B and I after the DVS test, and the XRPD results of each crystal form before and after the DVS test were compared.
DVS instrument parameters:
Maximum step size: 360 minutes

The next series has as its system prolyl hydroxylase. The settings on record: as disclosed in WO2017059623; cited from earlier work.
Series [6] in a line: Chemical stability under different placement conditions. In kind it is physicochemical. The settings on record: 40° C., humidity 75%, open/sealed, 25° C., humidity 60%, or 2-6° C.
[7] abbreviates: Humidity 92.5% (25° C.), 5 days.
[8] abbreviates: Humidity 92.5% (25° C.), 10 days.
The mark [9] stands for this setting: Humidity 92.5% (25° C.), 30 days.

With `O=C(O)CNC(=O)c1ncc(C#CCOc2ccc(Cl)cc2)cc1O` [crystal form C, 2-(3-hydroxy-5-(3-p-chlorophenoxypropyn-1-yl))picolinamido acetic acid], the “Physical stability (XRPD)” value in series [1] (4° C. sealed), in series [1] (25° C. open (humidity 60%)), in series [1] (40° C. open (humidity 75%)) and in series [1] (40° C. sealed (humidity 75%)) was “x (x means that the crystal form changed)” in each case. Further, the “Physical stability, conclusion from Table 7” value (“Physical stability, conclusion” below) in series [1] is recorded as “poor physical stability”.

For `O=C(O)CNC(=O)c1ncc(C#CCOc2ccc(Cl)cc2)cc1O` [crystal form A, 2-(3-hydroxy-5-(3-p-chlorophenoxypropyn-1-yl))picolinamido acetic acid], the “Crystal form change under low humidity (XRPD)” value in series [2] is “changed”. For the same molecule, the “Crystal form change after DSC heating (XRPD)” value in series [3] (after heating to 105° C.) is “changed”. The “Physical stability, conclusion” value in series [1] is “good physical stability”. The “Total impurity content (%)” value in series [4] (Day 0) is reported as 1.88%; in series [4] (Humidity 0% (25° C.), 5 days), 1.89%; in series [4] (Humidity 0% (25° C.), 10 days), 2.00%; in series [4] (Humidity 0% (25° C.), 30 days), 2.14%; in series [4] (Humidity 75% (25° C.), 5 days), 1.92%; in series [4] (Humidity 75% (25° C.), 10 days), 1.97%. Moreover, the “Total impurity content (%)” value stood at 2.17% in series [4] (Humidity 75% (25° C.), 30 days); 1.96% in series [4] (setting [7]); 1.99% in series [4] (setting [8]); 2.05% in series [4] (setting [9]). For the same molecule, in series [4], the Impurity content level entry is “relatively high impurity content”. Besides, in series [4], the “Change of impurity content under various conditions” value (from here on “Change of impurity content”) is listed as “changed significantly”. For the same molecule, the “Crystal form change before and after the DVS test (XRPD)” value in series [5] is “did not change, but the crystallinity thereof decreased”.

Consider `O=C(O)CNC(=O)c1ncc(C#CCOc2ccc(Cl)cc2)cc1O` [compound of formula (I), 2-(3-hydroxy-5-(3-p-chlorophenoxypropyn-1-yl))picolinamido acetic acid], for which, in the series with prolyl hydroxylase, the “Inhibition effect on prolyl hydroxylase” value is listed as “excellent inhibition effect”.

Regarding `O=C(O)CNC(=O)c1ncc(C#CCOc2ccc(Cl)cc2)cc1O` [crystal form I, 2-(3-hydroxy-5-(3-p-chlorophenoxypropyn-1-yl))picolinamido acetic acid], the “Crystal form change after DSC heating (XRPD)” value in series [3] (after heating to 105° C.) was “changed”. Further, the “Physical stability, conclusion” value in series [1] was “good physical stability”. Further, the “Total impurity content (%)” value in series [4] (Day 0) worked out at 1.56%; in series [4] (Humidity 0% (25° C.), 5 days), 1.57%; in series [4] (Humidity 0% (25° C.), 10 days) it was 1.58%; in series [4] (Humidity 0% (25° C.), 30 days), 2.06%; in series [4] (Humidity 75% (25° C.), 5 days), 1.72%; in series [4] (Humidity 75% (25° C.), 10 days) it was 1.78%. For the same molecule, the “Total impurity content (%)” value in series [4] (Humidity 75% (25° C.), 30 days) came out at 1.88%; in series [4] (setting [7]), 1.90%; in series [4] (setting [8]), 2.24%; in series [4] (setting [9]), 2.22%. Further, the Impurity content level result in series [4] is “relatively high impurity content”. The “Change of impurity content” value in series [4] was “changed significantly”. Also, the “Crystal form change before and after the DVS test (XRPD)” value in series [5] is recorded as “changed”. The “Stability / sensitivity to humidity” value in series [5] is recorded as “most sensitive to humidity”.

On to `O=C(O)CNC(=O)c1ncc(C#CCOc2ccc(Cl)cc2)cc1O` [crystal form H, 2-(3-hydroxy-5-(3-p-chlorophenoxypropyn-1-yl))picolinamido acetic acid], for which the “Physical stability (XRPD)” value in series [1] (40° C. open (humidity 75%)) is recorded as “x (x means that the crystal form changed)”. In addition, in series [1], the “Physical stability, conclusion” value is given as “poor physical stability”.

Regarding `O=C(O)CNC(=O)c1ncc(C#CCOc2ccc(Cl)cc2)cc1O` [crystal form B, 2-(3-hydroxy-5-(3-p-chlorophenoxypropyn-1-yl))picolinamido acetic acid], in series [6], the “Chemical stability under different placement conditions” value was “excellent chemical stability”. Besides, the “Crystal form change under low humidity (XRPD)” value in series [2] is “did not change”. In addition, in series [3] (after heating to 135° C.), the “Crystal form change after DSC heating (XRPD)” value is given as “did not change”. For the same molecule, the “Physical stability, conclusion” value in series [1] is “good physical stability”. Moreover, the “Total impurity content (%)” value in series [4] (Day 0) came to 0.95%; in series [4] (Humidity 0% (25° C.), 5 days), 0.97%; in series [4] (Humidity 0% (25° C.), 10 days), 1.03%; in series [4] (Humidity 0% (25° C.), 30 days), 1.09%; in series [4] (Humidity 75% (25° C.), 5 days), 0.94%; in series [4] (Humidity 75% (25° C.), 10 days), 0.98%. Moreover, the “Total impurity content (%)” value in series [4] (Humidity 75% (25° C.), 30 days) was determined as 1.06%; in series [4] (setting [7]) it was 0.98%; in series [4] (setting [8]), 0.98%; in series [4] (setting [9]) it was 1.02%. For the same molecule, the Impurity content level result in series [4] is “low impurity content”. For the same molecule, in series [4], the “Change of impurity content” value is recorded as “substantially did not increase”. In series [5], the “Crystal form change before and after the DVS test (XRPD)” value is recorded as “did not change”. Besides, the “Stability / sensitivity to humidity” value in series [5] is listed as “most stable to humidity”.

On to `O=C(O)CNC(=O)c1ncc(C#CCOc2ccc(Cl)cc2)cc1O` [crystal form D, 2-(3-hydroxy-5-(3-p-chlorophenoxypropyn-1-yl))picolinamido acetic acid], for which the “Physical stability (XRPD)” value in series [1] (4° C. sealed), in series [1] (25° C. open (humidity 60%)), in series [1] (40° C. open (humidity 75%)) and in series [1] (40° C. sealed (humidity 75%)) was “x (x means that the crystal form changed)” each time. Besides, in series [1], the “Physical stability, conclusion” value is “poor physical stability”.
